Data taken from patent US12600717B2, “Tricyclic compounds as inhibitors of KRAS” (Incyte Corporation, priority 2021, dated 2026).

Key:
KRAS G12V = KRAS G12V (Homo sapiens, UniProt P01116, G12V); assay: GDP-GTP exchange assay (bodipy-GDP/GppNHp, SOS1), KRAS G12V; type: biochemical; details: bodipy-loaded KRAS G12V 2.5 nM, 3 hours incubation after adding GppNHp-SOS1; read-out: G12V_exchange IC50
Description: (§1) The inhibitor potency of the exemplified compounds was determined in a fluorescence based guanine nucleotide exchange assay, which measures the exchange of bodipy-GDP (fluorescently labeled GDP) for GppNHp (Non-hydrolyzable GTP analog) to generate the active state of KRAS in the presence of SOS1 (guanine nucleotide exchange factor). Inhibitors were serially diluted in DMSO and a volume of 0.1 μL was transferred to the wells of a black low volume 384-well plate. 5 μL/well volume of bodipy-loaded KRAS G12D diluted to 2.5 nM in assay buffer (25 mM Hepes pH 7.5, 50 mM NaCl, 10 mM MgCl2 and 0.01% Brij-35) was added to the plate and pre-incubated with inhibitor for 4 hours at ambient temperature. Appropriate controls (enzyme with no inhibitor or with a G12D inhibitor) were included on the plate. The exchange was initiated by the addition of a 5 μL/well volume containing 1 mM GppNHp and 300 nM SOS1 in assay buffer. The 10 μL/well reaction concentration of the bodipy-loaded KRAS G12D, GppNHp, and SOS1 were 2.5 nM, 500 uM, and 150 nM, respectively. The reaction plates were incubated at ambient temperature for 2 hours, a time estimated for complete GDP-GTP exchange in the absence of inhibitor. For the KRAS G12V mutant, similar guanine nucleotide exchange assays were used with 2.5 nM as final concentration for the bodipy loaded KRAS proteins and 3 hours incubation after adding GppNHp-SOS1 mixture. A cyclic peptide described to selectively bind G12D mutant (Sakamoto et al., BBRC 484.3 (2017), 605-611) or internal compounds with confirmed binding were used as positive controls in the assay plates. Fluorescence intensities were measured on a PheraStar plate reader instrument (BMG Labtech) with excitation at 485 nm and emission at 520 nm.
(§2) Either GraphPad prism or Genedata Screener SmartFit was used to analyze the data. The IC50 values were derived by fitting the data to a four parameter logistic equation producing a sigmoidal dose-response curve with a variable Hill coefficient.
(§3) The symbol “†” indicates IC50≤100 nM, “††” indicates IC50>100 nM but ≤1 μM; and “†††” indicates IC50 is >1 μM but ≤5 μM, “††††” indicates IC50 is >5 μM but ≤10 μM. “NA” indicates IC50 not available.

KRAS G12D = KRAS G12D (Homo sapiens, UniProt P01116, G12D); assay: GDP-GTP exchange assay (bodipy-GDP/GppNHp, SOS1), KRAS G12D; type: biochemical; details: bodipy-loaded KRAS G12D 2.5 nM, 4 hours pre-incubation with inhibitor, 2 hours after GppNHp/SOS1; read-out: G12D_exchange IC50
Chain of KRAS G12D (P01116 1-188 isoform P01116-2 G12D): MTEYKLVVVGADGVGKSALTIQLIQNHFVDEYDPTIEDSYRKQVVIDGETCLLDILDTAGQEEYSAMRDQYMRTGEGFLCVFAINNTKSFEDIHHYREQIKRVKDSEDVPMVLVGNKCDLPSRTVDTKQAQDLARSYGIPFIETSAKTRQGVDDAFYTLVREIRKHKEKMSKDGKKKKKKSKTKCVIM
Description: as §1, §2, §3

Chain of KRAS G12V (P01116 1-188 isoform P01116-2 G12V): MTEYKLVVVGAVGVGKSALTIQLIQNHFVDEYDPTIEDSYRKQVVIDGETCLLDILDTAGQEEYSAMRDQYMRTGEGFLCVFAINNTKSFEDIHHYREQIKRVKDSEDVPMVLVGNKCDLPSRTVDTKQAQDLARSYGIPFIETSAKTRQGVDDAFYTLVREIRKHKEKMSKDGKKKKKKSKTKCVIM

Compound	IC50 (KRAS G12V)	IC50 (KRAS G12D)
CC(=O)N1CCCC(c2nc3c(N4CC(N(C)C)C4)nc4c(F)c(-c5cc(O)cc6ccccc56)c(C)cc4c3n2C2C3CNC2C3)C1 (single isomer, unassigned) [Example 1a, 1-(3-(1-((endo)-2-azabicyclo[2.1.1]hexan-5-yl)-4-(3-(dimethylamino)azetidin-1-yl)-6-fluoro-7-(3-hydroxynaphthalen-1-yl)-8-methyl-1H-imidazo[4,5-c]quinolin-2-yl)piperidin-1-yl)ethan-1-one]		100 to 1000 nM
Cc1cc2c(nc(N3CC(N(C)C)C3)c3nc(CCC(=O)N4CCN(c5ncccn5)CC4)n(C4C5CNC4C5)c32)c(F)c1-c1cc(O)cc2ccccc12 (single isomer, unassigned) [Example 2a, 3-(1-((endo)-2-azabicyclo[2.1.1]hexan-5-yl)-4-(3-(dimethylamino)azetidin-1-yl)-6-fluoro-7-(3-hydroxynaphthalen-1-yl)-8-methyl-1H-imidazo[4,5-c]quinolin-2-yl)-1-(4-(pyrimidin-2-yl)piperazin-1-yl)propan-1-one]	1000 to 5000 nM	≤ 100 nM
CN(C)C1CN(c2nc3c(F)c(-c4cc(O)cc5ccccc45)c(CCC#N)cc3c3c2nc(CCC(=O)N2CC4(CCOCC4)C2)n3C2C3CNC2C3)C1 (single isomer, unassigned) [Example 3a, 3-(1-((endo)-2-azabicyclo[2.1.1]hexan-5-yl)-4-(3-(dimethylamino)azetidin-1-yl)-6-fluoro-7-(3-hydroxynaphthalen-1-yl)-2-(3-oxo-3-(7-oxa-2-azaspiro[3.5]nonan-2-yl)propyl)-1H-imidazo[4,5-c]quinolin-8-yl)propanenitrile]	≤ 100 nM	≤ 100 nM
CC(=O)N1CCN(C(=O)CCc2nc3c(N4CC(N(C)C)C4)nc4c(F)c(-c5cc(O)cc6ccccc56)c(CCC#N)cc4c3n2C2C3CNC2C3)CC1 (single isomer, unassigned) [Example 4a, 3-(2-(3-(4-acetylpiperazin-1-yl)-3-oxopropyl)-1-((endo)-2-azabicyclo[2.1.1]hexan-5-yl)-4-(3-(dimethylamino)azetidin-1-yl)-6-fluoro-7-(3-hydroxynaphthalen-1-yl)-1H-imidazo[4,5-c]quinolin-8-yl)propanenitrile]	≤ 100 nM	≤ 100 nM
CN(C)C1CN(c2nc3c(F)c(-c4cc(O)cc5ccccc45)c(CCC#N)cc3c3c2nc(CN2CCCC2=O)n3C2C3CNC2C3)C1 (single isomer, unassigned) [Example 5a, 3-(1-((endo)-2-azabicyclo[2.1.1]hexan-5-yl)-4-(3-(dimethylamino)azetidin-1-yl)-6-fluoro-7-(3-hydroxynaphthalen-1-yl)-2-((2-oxopyrrolidin-1-yl)methyl)-1H-imidazo[4,5-c]quinolin-8-yl)propanenitrile]	≤ 100 nM	≤ 100 nM
CCc1nc2c(N3CC(N(C)C)C3)nc3c(F)c(-c4cc(O)cc5ccccc45)c(-c4cnco4)cc3c2n1C1C2CNC1C2 (single isomer, unassigned) [Example 6a, 4-(1-((endo)-2-azabicyclo[2.1.1]hexan-5-yl)-4-(3-(dimethylamino)azetidin-1-yl)-2-ethyl-6-fluoro-8-(oxazol-5-yl)-1H-imidazo[4,5-c]quinolin-7-yl)naphthalen-2-ol]	5000 to 10000 nM	100 to 1000 nM
CCc1nc2c(N3CC(N(C)C)C3)nc3c(F)c(-c4cc(O)cc5ccccc45)c(C(CC#N)n4cccn4)cc3c2n1C1C2CNC1C2 (single isomer, unassigned) [Example 7a, 3-(1-((endo)-2-azabicyclo[2.1.1]hexan-5-yl)-4-(3-(dimethylamino)azetidin-1-yl)-2-ethyl-6-fluoro-7-(3-hydroxynaphthalen-1-yl)-1H-imidazo[4,5-c]quinolin-8-yl)-3-(1H-pyrazol-1-yl)propanenitrile]	100 to 1000 nM	≤ 100 nM

Other lines, results leading:

IC50 (KRAS G12V)	IC50 (KRAS G12D)	Compound
100 to 1000 nM	≤ 100 nM	CCc1nc2c(OCC34CCCN3CC(F)C4)nc3c(F)c(-c4c[nH]c5ccc(F)cc45)c(CCC#N)cc3c2n1C1C2CNC1C2 (mixture of isomers) [Example 30, 3-(1-((endo)-2-azabicyclo[2.1.1]hexan-5-yl)-2-ethyl-6-fluoro-7-(5-fluoro-1H-indol-3-yl)-4-(((2R,7aS)-2-fluorotetrahydro-1H-pyrrolizin-7a(5H)-yl)methoxy)-1H-imidazo[4,5-c]quinolin-8-yl)propanenitrile]
≤ 100 nM	≤ 100 nM	CN(C)C(=O)CCc1nc2c(N3CC(N(C)C)C3)nc3c(F)c(-c4cc(O)cc5ccccc45)c(Cn4cccn4)cc3c2n1[C@@H]1[C@@H]2CN[C@H]1C2 (relative stereo) [Example 9, 3-(8-((1H-pyrazol-1-yl)methyl)-1-((endo)-2-azabicyclo[2.1.1]hexan-5-yl)-4-(3-(dimethylamino)azetidin-1-yl)-6-fluoro-7-(3-hydroxynaphthalen-1-yl)-1H-imidazo[4,5-c]quinolin-2-yl)-N,N-dimethylpropanamide]
5000 to 10000 nM	100 to 1000 nM	CN(C)C(=O)CCc1nc2c(N3CC(N(C)C)C3)nc3c(-c4cccc(C#N)c4)c(-c4cc(O)cc5ccccc45)c(CCC#N)cc3c2n1[C@@H]1[C@@H]2CN[C@H]1C2 (relative stereo) [Example 12, 3-(1-((endo)-2-azabicyclo[2.1.1]hexan-5-yl)-8-(2-cyanoethyl)-6-(3-cyanophenyl)-4-(3-(dimethylamino)azetidin-1-yl)-7-(3-hydroxynaphthalen-1-yl)-1H-imidazo[4,5-c]quinolin-2-yl)-N,N-dimethylpropanamide]
5000 to 10000 nM	100 to 1000 nM	CN(C)C(=O)CCc1nc2c(N3CC(N(C)C)C3)nc3c(OCc4ccccc4)c(-c4cccc5ccc(F)cc45)c(CCC#N)cc3c2n1[C@@H]1[C@@H]2CN[C@H]1C2 (relative stereo) [Example 14, 3-(6-(benzyloxy)-1-((endo)-2-azabicyclo[2.1.1]hexan-5-yl)-8-(2-cyanoethyl)-4-(3-(dimethylamino)azetidin-1-yl)-7-(7-fluoronaphthalen-1-yl)-1H-imidazo[4,5-c]quinolin-2-yl)-N,N-dimethylpropanamide]
1000 to 5000 nM	≤ 100 nM	CN(C)C(=O)CCc1nc2c(N3CC(N(C)C)C3)nc3c(F)c(-c4cc(O)cc5ccccc45)cc(CO)c3c2n1[C@@H]1[C@@H]2CN[C@H]1C2 (relative stereo) [Example 15, 3-(1-((endo)2-azabicyclo[2.1.1]hexan-5-yl)-4-(3-(dimethylamino)azetidin-1-yl)-6-fluoro-9-(hydroxymethyl)-7-(3-hydroxynaphthalen-1-yl)-1H-imidazo[4,5-c]quinolin-2-yl)-N,N-dimethylpropanamide]
5000 to 10000 nM	100 to 1000 nM	CNCCc1nc2c(N3CC(N(C)C)C3)nc3c(F)c(-c4cc(O)cc5ccccc45)c(Cc4ccc(C#N)cc4)cc3c2n1[C@@H]1[C@@H]2CN[C@H]1C2 (relative stereo) [Example 29, 4-((1-((endo)-2-azabicyclo[2.1.1]hexan-5-yl)-4-(3-(dimethylamino)azetidin-1-yl)-6-fluoro-7-(3-hydroxynaphthalen-1-yl)-2-(2-(methylamino)ethyl)-1H-imidazo[4,5-c]quinolin-8-yl)methyl)benzonitrile]
1000 to 5000 nM	≤ 100 nM	CN(C)C(=O)CCc1nc2c(N3CC(N(C)C)C3)nc3c(F)c(-c4cccc5c4CC(F)(F)CC5)c(CCC#N)cc3c2n1[C@@H]1[C@@H]2CN[C@H]1C2 (relative stereo) [Example 33, 3-(1-endo-(2-azabicyclo[2.1.1]hexan-5-yl)-8-(2-cyanoethyl)-7-(7,7-difluoro-5,6,7,8-tetrahydronaphthalen-1-yl)-4-(3-(dimethylamino)azetidin-1-yl)-6-fluoro-1H-imidazo[4,5-c]quinolin-2-yl)-N,N-dimethylpropanamide]
100 to 1000 nM	≤ 100 nM	CCc1nc2c(N3CC(N(C)C)C3)nc3c(F)c(-c4cc(O)cc5ccccc45)c(C(CC#N)n4cc(CO)cn4)cc3c2n1C1C2CNC1C2 (single isomer, unassigned) [Example 8b, 3-(1-((endo)-2-azabicyclo[2.1.1]hexan-5-yl)-4-(3-(dimethylamino)azetidin-1-yl)-2-ethyl-6-fluoro-7-(3-hydroxynaphthalen-1-yl)-1H-imidazo[4,5-c]quinolin-8-yl)-3-(4-(hydroxymethyl)-1H-pyrazol-1-yl)propanenitrile]
